For 2 compounds, inhibition results are on record in ChEMBL document CHEMBL5653615 (J Biol Chem, 2013).

In assay [1] the target is Calcium/calmodulin-dependent protein kinase type 1 (Homo sapiens) (UniProt Q14012). The assay is described as follows: Inhibition of human CAMK1a at 18.6 nM by HotSpot assay relative to control.
Assay [2] addresses Casein kinase I isoform epsilon (Homo sapiens) (UniProt P49674). The assay is described as follows: Inhibition of human CK1epsilon at 18.6 nM by HotSpot assay relative to control.
In assay [3] the target is T1, Serine/threonine-protein kinase DCLK2 (Homo sapiens) (UniProt Q8N568).
T1 sequence (whole entry): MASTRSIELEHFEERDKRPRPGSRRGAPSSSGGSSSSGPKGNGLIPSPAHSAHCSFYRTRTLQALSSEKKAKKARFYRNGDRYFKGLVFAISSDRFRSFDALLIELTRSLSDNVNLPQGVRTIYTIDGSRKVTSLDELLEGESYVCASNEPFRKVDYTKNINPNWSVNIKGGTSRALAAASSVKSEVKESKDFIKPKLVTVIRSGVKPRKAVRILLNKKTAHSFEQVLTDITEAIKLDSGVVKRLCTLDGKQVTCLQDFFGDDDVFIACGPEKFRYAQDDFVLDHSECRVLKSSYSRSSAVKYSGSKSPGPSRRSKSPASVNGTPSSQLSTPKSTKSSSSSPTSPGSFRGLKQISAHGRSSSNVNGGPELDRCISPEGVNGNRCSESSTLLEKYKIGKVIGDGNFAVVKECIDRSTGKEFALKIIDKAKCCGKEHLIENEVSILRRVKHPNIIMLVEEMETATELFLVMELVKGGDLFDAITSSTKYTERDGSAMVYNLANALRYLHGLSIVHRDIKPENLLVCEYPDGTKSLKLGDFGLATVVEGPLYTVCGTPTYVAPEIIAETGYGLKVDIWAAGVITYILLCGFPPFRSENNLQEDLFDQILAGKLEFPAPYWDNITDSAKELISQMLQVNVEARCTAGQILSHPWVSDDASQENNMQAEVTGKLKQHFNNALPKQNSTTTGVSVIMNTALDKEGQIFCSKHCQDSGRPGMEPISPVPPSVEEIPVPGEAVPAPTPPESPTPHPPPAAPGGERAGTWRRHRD
Put plainly: Inhibition of human DCAMKL2 at 18.6 nM by HotSpot assay relative to control.

Assay [4] addresses T2, Serine/threonine-protein kinase Nek9 (Homo sapiens) (UniProt Q8TD19).
T2 sequence (whole entry): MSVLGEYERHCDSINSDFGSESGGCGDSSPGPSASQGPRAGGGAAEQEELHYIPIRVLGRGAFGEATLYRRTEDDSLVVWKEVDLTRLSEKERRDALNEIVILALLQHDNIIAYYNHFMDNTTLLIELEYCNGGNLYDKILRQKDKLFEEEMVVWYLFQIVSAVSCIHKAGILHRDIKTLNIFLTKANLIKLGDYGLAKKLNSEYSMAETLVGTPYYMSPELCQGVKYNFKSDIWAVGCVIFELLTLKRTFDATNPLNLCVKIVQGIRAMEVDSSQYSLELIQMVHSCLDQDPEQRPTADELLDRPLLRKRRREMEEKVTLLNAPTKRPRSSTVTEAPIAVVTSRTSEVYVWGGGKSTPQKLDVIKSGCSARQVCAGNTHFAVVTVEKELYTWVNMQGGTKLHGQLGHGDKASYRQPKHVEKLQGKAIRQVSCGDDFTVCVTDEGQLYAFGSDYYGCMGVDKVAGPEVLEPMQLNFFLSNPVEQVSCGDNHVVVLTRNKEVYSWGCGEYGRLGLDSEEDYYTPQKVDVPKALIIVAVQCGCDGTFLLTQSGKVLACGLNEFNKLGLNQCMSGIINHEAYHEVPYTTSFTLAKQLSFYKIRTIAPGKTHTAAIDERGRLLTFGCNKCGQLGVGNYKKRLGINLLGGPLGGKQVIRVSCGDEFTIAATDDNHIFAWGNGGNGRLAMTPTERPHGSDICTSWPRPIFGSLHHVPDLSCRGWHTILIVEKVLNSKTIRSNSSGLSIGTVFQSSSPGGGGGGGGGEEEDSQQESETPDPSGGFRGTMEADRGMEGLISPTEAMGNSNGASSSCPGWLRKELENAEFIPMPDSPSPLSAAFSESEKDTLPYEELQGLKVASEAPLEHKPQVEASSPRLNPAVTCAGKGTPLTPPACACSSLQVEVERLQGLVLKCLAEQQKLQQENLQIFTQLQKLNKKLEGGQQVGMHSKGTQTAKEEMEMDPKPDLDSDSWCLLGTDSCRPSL
The assay is described as follows: Inhibition of human NEK9 at 18.6 nM by HotSpot assay relative to control.

Assay [5] addresses PAS domain-containing serine/threonine-protein kinase (Homo sapiens) (UniProt Q96RG2). The assay is described as follows: Inhibition of human PASK at 18.6 nM by HotSpot assay relative to control.
Assay [6] addresses Mitogen-activated protein kinase kinase kinase kinase 4 (Homo sapiens) (UniProt O95819). The assay is described as follows: Inhibition of human HGK at 1.82 nM by HotSpot assay relative to control.
The target of assay [7] is Ribosomal protein S6 kinase alpha-5 (Homo sapiens) (UniProt O75582). Put plainly: Inhibition of human RPS6KA5 at 1.82 nM by HotSpot assay relative to control.
The target of assay [8] is T3, Serine/threonine-protein kinase TAO3 (Homo sapiens) (UniProt Q9H2K8).
T3 sequence (whole entry): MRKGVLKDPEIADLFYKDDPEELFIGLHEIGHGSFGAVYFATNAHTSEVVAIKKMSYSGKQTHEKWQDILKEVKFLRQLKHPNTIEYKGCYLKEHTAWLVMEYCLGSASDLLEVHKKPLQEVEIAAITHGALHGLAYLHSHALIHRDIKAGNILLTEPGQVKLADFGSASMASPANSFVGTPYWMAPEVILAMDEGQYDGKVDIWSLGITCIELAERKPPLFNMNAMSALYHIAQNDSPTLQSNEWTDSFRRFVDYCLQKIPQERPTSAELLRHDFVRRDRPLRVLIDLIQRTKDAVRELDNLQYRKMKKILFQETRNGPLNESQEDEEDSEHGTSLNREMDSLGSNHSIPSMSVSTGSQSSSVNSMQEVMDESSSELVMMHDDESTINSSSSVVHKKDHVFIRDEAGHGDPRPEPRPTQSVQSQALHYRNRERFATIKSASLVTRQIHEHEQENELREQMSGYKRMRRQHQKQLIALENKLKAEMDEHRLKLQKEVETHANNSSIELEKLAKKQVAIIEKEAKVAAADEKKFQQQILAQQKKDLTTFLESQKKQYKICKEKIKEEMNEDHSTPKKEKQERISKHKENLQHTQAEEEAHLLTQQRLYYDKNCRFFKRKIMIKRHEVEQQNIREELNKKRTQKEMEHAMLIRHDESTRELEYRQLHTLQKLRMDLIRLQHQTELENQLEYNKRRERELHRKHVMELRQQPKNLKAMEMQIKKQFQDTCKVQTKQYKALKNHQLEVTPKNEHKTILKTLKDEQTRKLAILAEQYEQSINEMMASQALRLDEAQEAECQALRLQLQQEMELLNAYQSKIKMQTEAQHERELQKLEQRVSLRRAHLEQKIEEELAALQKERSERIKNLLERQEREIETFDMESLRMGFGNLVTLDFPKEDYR
The assay is described as follows: Inhibition of human JIK at 1.82 nM by HotSpot assay relative to control.

Molecules are shown by their SMILES.

Chain of Calcium/calmodulin-dependent protein kinase type 1 (Homo sapiens) (Q14012 whole entry, looked up, canonical isoform): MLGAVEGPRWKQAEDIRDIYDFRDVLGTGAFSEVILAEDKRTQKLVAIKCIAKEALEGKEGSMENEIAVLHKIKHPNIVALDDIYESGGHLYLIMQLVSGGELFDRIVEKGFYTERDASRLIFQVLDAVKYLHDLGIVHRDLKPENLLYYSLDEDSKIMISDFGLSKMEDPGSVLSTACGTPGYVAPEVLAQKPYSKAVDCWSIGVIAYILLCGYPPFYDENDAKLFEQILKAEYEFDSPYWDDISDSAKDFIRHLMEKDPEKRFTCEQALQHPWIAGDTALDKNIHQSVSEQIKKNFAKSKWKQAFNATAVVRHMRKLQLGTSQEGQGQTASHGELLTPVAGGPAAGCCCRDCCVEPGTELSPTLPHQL
Chain of Mitogen-activated protein kinase kinase kinase kinase 4 (Homo sapiens) (O95819 2-1239 limits assumed): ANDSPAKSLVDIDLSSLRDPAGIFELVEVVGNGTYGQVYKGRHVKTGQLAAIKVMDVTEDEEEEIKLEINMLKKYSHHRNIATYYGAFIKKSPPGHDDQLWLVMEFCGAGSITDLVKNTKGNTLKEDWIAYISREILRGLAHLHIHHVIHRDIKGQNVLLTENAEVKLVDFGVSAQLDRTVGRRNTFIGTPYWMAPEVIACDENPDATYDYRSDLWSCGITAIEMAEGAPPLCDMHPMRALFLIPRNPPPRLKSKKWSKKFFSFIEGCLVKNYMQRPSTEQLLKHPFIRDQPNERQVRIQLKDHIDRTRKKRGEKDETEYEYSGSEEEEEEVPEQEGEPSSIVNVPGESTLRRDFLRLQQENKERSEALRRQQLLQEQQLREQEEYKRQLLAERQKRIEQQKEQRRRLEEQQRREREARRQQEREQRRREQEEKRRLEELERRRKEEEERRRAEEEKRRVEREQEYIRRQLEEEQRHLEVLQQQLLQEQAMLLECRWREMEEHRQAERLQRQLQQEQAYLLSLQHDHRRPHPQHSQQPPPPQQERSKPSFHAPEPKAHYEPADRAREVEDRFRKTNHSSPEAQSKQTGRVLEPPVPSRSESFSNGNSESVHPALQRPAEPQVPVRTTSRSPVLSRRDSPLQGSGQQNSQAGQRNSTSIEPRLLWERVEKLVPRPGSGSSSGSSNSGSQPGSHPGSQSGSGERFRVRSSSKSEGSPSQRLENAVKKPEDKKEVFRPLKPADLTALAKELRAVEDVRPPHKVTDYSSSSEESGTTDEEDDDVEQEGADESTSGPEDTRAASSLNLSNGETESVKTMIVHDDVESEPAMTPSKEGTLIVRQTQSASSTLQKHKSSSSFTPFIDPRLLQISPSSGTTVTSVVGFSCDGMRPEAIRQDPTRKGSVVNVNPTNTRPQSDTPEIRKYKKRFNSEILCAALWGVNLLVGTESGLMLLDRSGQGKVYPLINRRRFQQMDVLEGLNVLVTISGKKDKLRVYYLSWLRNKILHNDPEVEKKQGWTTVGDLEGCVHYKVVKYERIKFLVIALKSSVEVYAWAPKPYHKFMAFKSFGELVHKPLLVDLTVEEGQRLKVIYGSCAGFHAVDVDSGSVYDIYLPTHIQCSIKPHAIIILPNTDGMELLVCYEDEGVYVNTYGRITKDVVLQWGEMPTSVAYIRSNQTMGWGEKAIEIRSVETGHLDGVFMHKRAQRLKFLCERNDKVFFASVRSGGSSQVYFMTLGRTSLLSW
Chain of PAS domain-containing serine/threonine-protein kinase (Homo sapiens) (Q96RG2 whole entry, the tested form may be a part): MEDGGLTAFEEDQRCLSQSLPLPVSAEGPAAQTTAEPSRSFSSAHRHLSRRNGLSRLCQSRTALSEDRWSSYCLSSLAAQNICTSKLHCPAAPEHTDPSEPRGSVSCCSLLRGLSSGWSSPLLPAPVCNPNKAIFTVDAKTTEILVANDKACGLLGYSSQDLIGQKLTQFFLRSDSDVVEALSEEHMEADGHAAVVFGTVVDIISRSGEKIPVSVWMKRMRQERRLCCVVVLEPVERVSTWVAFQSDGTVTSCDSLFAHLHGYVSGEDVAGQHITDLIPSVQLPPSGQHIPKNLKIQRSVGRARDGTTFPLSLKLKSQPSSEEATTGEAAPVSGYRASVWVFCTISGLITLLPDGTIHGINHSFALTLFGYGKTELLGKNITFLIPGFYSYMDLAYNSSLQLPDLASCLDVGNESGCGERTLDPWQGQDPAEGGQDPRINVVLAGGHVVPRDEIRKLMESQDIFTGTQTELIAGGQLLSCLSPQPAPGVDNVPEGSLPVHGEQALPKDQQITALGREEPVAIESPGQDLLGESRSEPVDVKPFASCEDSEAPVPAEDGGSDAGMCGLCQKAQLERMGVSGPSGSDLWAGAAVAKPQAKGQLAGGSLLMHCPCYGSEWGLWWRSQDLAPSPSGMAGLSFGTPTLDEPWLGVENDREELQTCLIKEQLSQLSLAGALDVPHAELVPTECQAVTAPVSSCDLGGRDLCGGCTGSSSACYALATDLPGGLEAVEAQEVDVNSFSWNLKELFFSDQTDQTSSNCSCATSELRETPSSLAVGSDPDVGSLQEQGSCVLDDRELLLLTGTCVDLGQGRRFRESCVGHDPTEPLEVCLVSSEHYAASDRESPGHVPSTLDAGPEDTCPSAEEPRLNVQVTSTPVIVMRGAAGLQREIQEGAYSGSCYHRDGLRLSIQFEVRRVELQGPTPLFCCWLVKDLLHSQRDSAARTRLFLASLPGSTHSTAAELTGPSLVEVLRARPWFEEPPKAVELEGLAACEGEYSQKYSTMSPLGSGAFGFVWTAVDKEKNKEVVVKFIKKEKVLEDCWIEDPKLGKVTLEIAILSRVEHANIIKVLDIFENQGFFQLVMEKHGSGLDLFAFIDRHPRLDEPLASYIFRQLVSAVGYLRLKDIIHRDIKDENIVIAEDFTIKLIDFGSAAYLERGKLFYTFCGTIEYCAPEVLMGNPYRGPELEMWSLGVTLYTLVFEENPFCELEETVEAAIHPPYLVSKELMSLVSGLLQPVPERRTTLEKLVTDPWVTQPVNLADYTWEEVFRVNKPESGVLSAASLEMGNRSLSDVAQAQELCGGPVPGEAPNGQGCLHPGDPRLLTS
Chain of Ribosomal protein S6 kinase alpha-5 (Homo sapiens) (O75582 whole entry, looked up): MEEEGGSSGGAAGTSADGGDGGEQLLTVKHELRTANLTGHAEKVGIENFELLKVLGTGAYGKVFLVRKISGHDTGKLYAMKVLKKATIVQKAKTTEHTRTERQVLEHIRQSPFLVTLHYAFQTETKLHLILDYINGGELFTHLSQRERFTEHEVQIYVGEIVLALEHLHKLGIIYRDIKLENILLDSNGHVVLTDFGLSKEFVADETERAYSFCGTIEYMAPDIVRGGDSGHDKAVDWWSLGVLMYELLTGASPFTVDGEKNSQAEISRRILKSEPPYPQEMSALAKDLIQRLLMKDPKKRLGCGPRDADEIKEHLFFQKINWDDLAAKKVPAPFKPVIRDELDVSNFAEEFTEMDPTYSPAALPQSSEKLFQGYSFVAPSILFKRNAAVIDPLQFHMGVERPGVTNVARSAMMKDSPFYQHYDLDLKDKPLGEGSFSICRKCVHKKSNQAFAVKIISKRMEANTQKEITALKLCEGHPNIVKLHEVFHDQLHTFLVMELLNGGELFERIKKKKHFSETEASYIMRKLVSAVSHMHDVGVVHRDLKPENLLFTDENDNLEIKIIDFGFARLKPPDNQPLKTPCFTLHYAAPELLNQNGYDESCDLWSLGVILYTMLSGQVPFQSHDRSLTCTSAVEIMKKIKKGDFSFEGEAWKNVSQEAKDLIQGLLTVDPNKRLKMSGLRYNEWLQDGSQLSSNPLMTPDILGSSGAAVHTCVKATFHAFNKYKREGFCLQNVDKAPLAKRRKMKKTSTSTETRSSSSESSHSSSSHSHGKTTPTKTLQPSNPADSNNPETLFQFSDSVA
Chain of Casein kinase I isoform epsilon (Homo sapiens) (P49674 whole entry, looked up, canonical isoform): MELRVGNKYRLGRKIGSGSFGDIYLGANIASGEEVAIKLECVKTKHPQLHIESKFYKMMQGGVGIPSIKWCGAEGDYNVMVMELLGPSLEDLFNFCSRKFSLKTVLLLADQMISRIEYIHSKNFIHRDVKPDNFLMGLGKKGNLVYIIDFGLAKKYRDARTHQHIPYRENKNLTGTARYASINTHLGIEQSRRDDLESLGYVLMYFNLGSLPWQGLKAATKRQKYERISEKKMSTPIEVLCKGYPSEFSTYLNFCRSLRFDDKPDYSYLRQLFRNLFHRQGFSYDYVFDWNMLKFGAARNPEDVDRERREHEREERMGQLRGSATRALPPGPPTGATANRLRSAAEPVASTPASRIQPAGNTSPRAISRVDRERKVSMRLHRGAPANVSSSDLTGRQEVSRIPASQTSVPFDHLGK

As a reminder, the inhibition is the change of the read-out against control, counted positive when it falls. Take `C[C@]1(O)C[C@@H](c2nc(-c3ccc4ccc(-c5ccccc5)nc4c3)c3c(N)nccn32)C1`: the inhibition in assay [1] was 9.19%; in assay [2], 0.64%; in assay [3], 10.8%; in assay [4], -6.26%; in assay [5], -4.72%.
For `C[C@@]1(C(=O)Nc2ccc(F)nc2)CCCN1c1nc(Nc2cc(C3CC3)n[nH]2)c2cccn2n1`, the inhibition in assay [6] is -4.23%; in assay [7], -3.72%; in assay [8] it was 4.12%.
